# Reference: patent US7468445B2, “Antigiardial agents and use thereof” (University of Mississippi, priority 2002, dated 2008)
# Like-named read-outs stand apart in the source and are kept apart here.
# Key:
# [1] = system: Giardia intestinalis (ATCC #30888); assay: Antigiardial biological screening (XTT tetrazolium dye procedure); format: cell-based; details: for IC50: concentration that inhibits giardial growth by 50%, estimated graphically, samples at 10, 3.3 and 1.1 μg/mL, 24 h at 37° C., XTT, NA = inactive; for antigiardial activity/potency in words (SAR discussion): discussion of the IC50 table
# Method: Biological Screening. […] Subculturing was done every 48-72 h under a sterile biosafety hood. Tubes were chilled in an ice bath for 10 min. in order to detach the organisms, and 1 mL of cell suspension was added to 14 mL of fresh medium. To carry out the screening, a suspension of Giardia cells was prepared at a concentration of 100,000 cells/mL. 100 μL of the suspension was then added to each well of a Corning 96-well flat-bottomed tissue culture-treated plate. Blank wells received medium only. An additional 125 μL of medium was added to each well, and the plates were incubated at 37° C. for 24 h in an anaerobic chamber filled with nitrogen. […] The plates were further incubated at 37° C. for 24 h. The plates were then processed using a tetrazolium dye (XTT) procedure. Absorbance readings were taken at 450 nm with background at 630 nm subtracted.
# [2] = system: Giardia lamblia; details: biological evaluation of natural products; formononetin and pseudobaptigenin in vitro; cited from earlier work
# [3] = Giardia duodenalis, ATCC30888, read-out: IC50
Molecule,IC50 [1] [µg/mL],other results
"O=c1c(-c2ccc(-c3ccccc3)cc2)coc2c(F)c(O)ccc12 [P(A1,B16)]",–,antigiardial activity/potency in words (SAR discussion) [1]: less activity
"O=c1c(-c2ccccc2)coc2c(Cl)c(O)ccc12 [P(A2,B1), 8-Chloro-7-hydroxy-3-phenylchromen-4-one]",–,"IC50 [1, 3]: 1.7 µg/mL; melting point: 242 to 244 °C"
"Cc1cccc(-c2coc3c(Cl)c(O)ccc3c2=O)c1 [P(A2,B19)]",>10.0,–
"O=c1c(-c2ccc(F)c(F)c2)coc2c(Cl)c(O)ccc12 [P(A2,B22)]",3.7,–
"O=c1c(-c2cc(F)cc(F)c2)coc2c(Cl)c(O)ccc12 [P(A2,B23)]",<1.1,–
"O=c1c(-c2cccc(Br)c2)coc2c(Cl)c(O)ccc12 [P(A2,B26)]",<1.1,–
"O=c1c(-c2cccc(Cl)c2)coc2c(Cl)c(O)ccc12 [P(A2,B27)]",1.7,–
"O=c1c(-c2cccc(F)c2)coc2c(Cl)c(O)ccc12 [P(A2,B28)]",5.2,–
"COc1cccc(-c2coc3c(Cl)c(O)ccc3c2=O)c1 [P(A2,B29)]",4.8,–
"O=c1c(-c2ccccc2)coc2c(Br)c(O)ccc12 [P(A3,B1), 8-Bromo-7-hydroxy-3-phenylchromen-4-one]",–,"IC50 [1, 3]: 1.6 µg/mL; melting point: 256 to 258 °C"
"Cc1cccc(-c2coc3c(Br)c(O)ccc3c2=O)c1 [P(A3,B19)]",<1.1,antigiardial activity/potency in words (SAR discussion) [1]: enhanced potency
"O=c1c(-c2cccc(Cl)c2)coc2c(Br)c(O)ccc12 [P(A3,B27)]",1.9,–
"O=c1c(-c2cccc(F)c2)coc2c(Br)c(O)ccc12 [P(A3,B28)]",<1.1,antigiardial activity/potency in words (SAR discussion) [1]: enhanced potency
"O=c1c(-c2ccccc2)coc2cc(O)c(F)cc12 [P(A4,B1)]",6.2,–
"O=c1c(-c2ccc(Cl)cc2)coc2cc(O)c(F)cc12 [P(A4,B8)]",6.4,–
"O=c1c(-c2ccc(F)cc2)coc2cc(O)c(F)cc12 [P(A4,B9)]",>10.0,–
"O=c1c(-c2ccc(-c3ccccc3)cc2)coc2cc(O)c(F)cc12 [P(A4,B16)]",–,antigiardial activity/potency in words (SAR discussion) [1]: less activity
"O=c1c(-c2ccc(Br)cc2)coc2cc(O)c(F)cc12 [P(A4,B17)]",9.0,–
"Cc1cccc(-c2coc3cc(O)c(F)cc3c2=O)c1 [P(A4,B19)]",<1.1,antigiardial activity/potency in words (SAR discussion) [1]: enhanced potency
"Cc1ccc(-c2coc3cc(O)c(F)cc3c2=O)cc1 [P(A4,B20)]",>10.0,–

Molecule,IC50 [1] [µg/mL],other results
"O=c1c(-c2ccc(Cl)c(Cl)c2)coc2cc(O)c(F)cc12 [P(A4,B21)]",>10.0,–
"O=c1c(-c2ccc(F)c(F)c2)coc2cc(O)c(F)cc12 [P(A4,B22)]",9.4,–
"O=c1c(-c2cccc(F)c2)coc2cc(O)c(F)cc12 [P(A4,B28)]",4.3,–
"O=c1c(-c2ccccc2)coc2cc(O)c(Cl)cc12 [P(A5,B1), 6-Chloro-7-hydroxy-3-phenylchromen-4-one]",–,melting point: 279 to 280 °C
"O=c1c(-c2ccc(-c3ccccc3)cc2)coc2cc(O)c(Cl)cc12 [P(A5,B16)]",–,antigiardial activity/potency in words (SAR discussion) [1]: less activity
"O=c1c(-c2ccc(Br)cc2)coc2cc(O)c(Cl)cc12 [P(A5,B17)]",>10.0,–
"Cc1cccc(-c2coc3cc(O)c(Cl)cc3c2=O)c1 [P(A5,B19)]",2.5,–
"O=c1c(-c2ccc(Cl)c(Cl)c2)coc2cc(O)c(Cl)cc12 [P(A5,B21)]",9.8,–
"O=c1c(-c2cc(F)cc(F)c2)coc2cc(O)c(Cl)cc12 [P(A5,B23)]",6.7,–
"O=c1c(-c2cccc(Cl)c2)coc2cc(O)c(Cl)cc12 [P(A5,B27)]",>10.0,–
"O=c1c(-c2ccccc2)coc2cc(O)c(Br)cc12 [P(A6,B1), 6-Bromo-7-hydroxy-3-phenylchromen-4-one]",–,"IC50 [1, 3]: 5 µg/mL; melting point: 296 to 297 °C (dec.)"
"O=c1c(-c2ccc(-c3ccccc3)cc2)coc2cc(O)c(Br)cc12 [P(A6,B16)]",–,antigiardial activity/potency in words (SAR discussion) [1]: less activity
"Cc1ccc(-c2coc3cc(O)c(Br)cc3c2=O)cc1 [P(A6,B20)]",>10.0,–
"O=c1c(-c2cccc(F)c2)coc2cc(O)c(Br)cc12 [P(A6,B28)]",<1.1,antigiardial activity/potency in words (SAR discussion) [1]: enhanced potency
COc1ccc(-c2coc3cc(O)ccc3c2=O)cc1 [formononetin],–,antigiardial activity [2]: potent antigiardial activity
O=c1c(O)c(-c2ccc(O)cc2)oc2cc(O)cc(O)c12 [kaempferol],–,antigiardial activity [2]: exhibit antigiardial activity
"Cc1ncc([N+](=O)[O-])n1CCO [metronidazole, reference compound]",–,"IC50 [1, 3]: 1.5 µg/mL"
O=c1c(-c2ccc3c(c2)OCO3)coc2cc(O)ccc12 [pseudobaptigenin],–,antigiardial activity [2]: potent antigiardial activity
O=c1c(O)c(-c2ccc(O)c(O)c2)oc2cc(O)cc(O)c12 [quercetin],–,antigiardial activity [2]: exhibit antigiardial activity
geranins A [geranin A],–,antigiardial activity [2]: exhibit antigiardial activity

# More lines, main results first:
IC50 [1] [µg/mL],Molecule,other results
<1.1,"O=c1c(-c2ccccc2)coc2c(F)c(O)ccc12 [P(A1,B1)]",–
>10.0,"O=c1c(-c2ccc(Cl)cc2)coc2c(F)c(O)ccc12 [P(A1,B8)]",–
>10.0,"O=c1c(-c2ccc(F)cc2)coc2c(F)c(O)ccc12 [P(A1,B9)]",–
<1.1,"COc1ccc(-c2coc3c(F)c(O)ccc3c2=O)cc1 [P(A1,B11)]",antigiardial activity/potency in words (SAR discussion) [1]: enhanced potency
>10.0,"O=c1c(-c2ccc(Br)cc2)coc2c(F)c(O)ccc12 [P(A1,B17)]",–
8.8,"CCOc1ccc(-c2coc3c(F)c(O)ccc3c2=O)cc1 [P(A1,B18)]",–
<1.1,"Cc1cccc(-c2coc3c(F)c(O)ccc3c2=O)c1 [P(A1,B19)]",antigiardial activity/potency in words (SAR discussion) [1]: enhanced potency
<1.1,"Cc1ccc(-c2coc3c(F)c(O)ccc3c2=O)cc1 [P(A1,B20)]",–
<1.1,"O=c1c(-c2ccc(F)c(F)c2)coc2c(F)c(O)ccc12 [P(A1,B22)]",–
<1.1,"O=c1c(-c2cccc(Cl)c2)coc2c(F)c(O)ccc12 [P(A1,B27)]",–
4.5,"O=c1c(-c2ccc(Cl)cc2)coc2c(Cl)c(O)ccc12 [P(A2,B8)]",–
>10.0,"O=c1c(-c2ccc(F)cc2)coc2c(Cl)c(O)ccc12 [P(A2,B9)]",–
>10.0,"COc1ccc(-c2coc3c(Cl)c(O)ccc3c2=O)cc1 [P(A2,B11)]",–
5.7,"O=c1c(-c2ccc(Br)cc2)coc2c(Cl)c(O)ccc12 [P(A2,B17)]",–
>10.0,"CCOc1ccc(-c2coc3c(Cl)c(O)ccc3c2=O)cc1 [P(A2,B18)]",–
>10.0,"Cc1ccc(-c2coc3c(Cl)c(O)ccc3c2=O)cc1 [P(A2,B20)]",–
1.9,"O=c1c(-c2ccc(Cl)cc2)coc2c(Br)c(O)ccc12 [P(A3,B8)]",–
6.8,"O=c1c(-c2ccc(F)cc2)coc2c(Br)c(O)ccc12 [P(A3,B9)]",–
9.3,"CCOc1ccc(-c2coc3c(Br)c(O)ccc3c2=O)cc1 [P(A3,B10)]",–
<1.1,"COc1ccc(-c2coc3c(Br)c(O)ccc3c2=O)cc1 [P(A3,B11)]",antigiardial activity/potency in words (SAR discussion) [1]: enhanced potency
>10.0,"O=c1c(-c2ccc(Br)cc2)coc2c(Br)c(O)ccc12 [P(A3,B17)]",–
3.9,"Cc1ccc(-c2coc3c(Br)c(O)ccc3c2=O)cc1 [P(A3,B20)]",–
>10.0,"COc1ccc(-c2coc3cc(O)c(F)cc3c2=O)cc1 [P(A4,B11)]",–
